From publication PMC5118688 (Scientific Reports, 2016)
≈ marks a conversion by molar mass, not a printed value. Read-outs that look alike come from different tables or passages of the source.

Key:
mAb3C9 [1] = test: optimized chemosynthesized antigen-based dcELISA (mAb3C9 and hapten 6-OVA); conditions: for CR (%): Hapten 6-OVA, (IC50 of parathion-methyl/IC50 of pesticide) × 100
Description: (§1) The dcELISA procedure was performed as below. First, the plate (Costar, Corning Inc., New York, USA) was coated with coating antigen (100 μL/well in 1 × PBS) for 1 h at 37 °C. Then, the wells were washed four times with PBST (1 × PBS with 0.05% (v/v) Tween-20) and blocked with 2% skim milk (200 μL/well) for 1 h at 37 °C. After washing four times, 50 μL analyte in MeOH-water solution and 50 μL mAb-HRP in PBS were added. The plate was incubated for 1 h at 37 °C and then washed four times before adding TMB solution (100 μL/well). After incubation for 15 min at 37 °C, 50 μL/well of H2SO4 (2 mol/L) was added to stop the reaction, and the absorbance was recorded at 450 nm using the Model 680 plate reader (Bio-Rad, USA).
(§2) 18 kinds of O,O-dimethyl OPs and 6 kinds of O,O-diethyl OPs were purchased from National Standards of China and used for the selectivity and sensitivity study using the optimized dcELISA procedure. […] The IC50 value and detection limit of each OP were calculated. The CR value, which was used to evaluate the selectivity of the method, was calculated using the following equation:

mAb3C9 [2] = test: mimotope-based dcELISA (mAb3C9 and M20-GST-BAD/SA-HRP competitor); format: binding, mouse; conditions: for CR (%): M20-GST-BAD, (IC50 of parathion-methyl/IC50 of pesticide) × 100
Description: To develop a mimotope-based dcELISA, the biotinylated mimotope fusion protein was firstly assembled with streptavidin-HRP conjugate (SA-HRP) utilized the high affinity of biotin and streptavidin. The assembly process was just mixing a certain amount of biotinylated mimotope fusion protein with SA-HRP and incubating them at 4 °C overnight before use as an HRP-labeled competitor.
An innovative mimotope-based dcELISA was developed and performed as below. […] TMB solution (100 μL/well) was added and incubated for 15 min at 37 °C.
The optimal condition for mimotope-based dcELISA was optimized as chemosynthesized antigen-based dcELISA. The selectivity and sensitivity of the developed mimotope-based dcELISA for the 24 OPs were also determined under the optimum condition.

mAb4D11 = test: optimized mAb4D11-based dcELISA
Description: as §1, §2

[3] = ref Hua et al. 11; cited from earlier work
[4] = ref Liang et al. 9; cited from earlier work
[5] = mAb3C9, coating antigen Hapten 6-OVA

Row | SMILES | CR (%) (mAb3C9 [1]) | LOD (IC10) (mAb3C9 [1]; mAb3C9, Hapten 6-OVA) [µg/mL] | IC50 ± SD (mAb3C9 [1]; [5]) [µg/mL] | CR (%) (mAb3C9 [2]) | LOD (IC10) (mAb3C9 [2]; mAb3C9, M20-GST-BAD) [µg/mL] | IC50 ± SD (mAb3C9 [2]; mAb3C9, competitor M20-GST-BAD) [µg/mL] | CR (%) (mAb4D11; mAb4D11-based dcELISA) | IC50 (mAb4D11; mAb4D11-based dcELISA) [µg/mL] | LOD (mAb4D11; mAb4D11-based dcELISA) [ng/mL] | IC50 [3] [µg/mL] | IC50 ± SD (mAb3C9 [1]) [µg/mL] | LOD (IC10) (mAb3C9 [1]) [µg/mL] | IC50 ± SD (mAb3C9 [2]) [µg/mL] | LOD (IC10) (mAb3C9 [2]) [µg/mL] | CR (%) (mAb4D11) | IC50 (mAb4D11) [µg/mL] | IC50 [4] [µg/mL]
1 | COP(=S)(OC)Oc1cc(Cl)c(Br)cc1Cl [Bromophos-methyl] | 6.2 | 0.0195 | 0.0755 ± 0.0041 (≈ 0.206 µM) | 6.2 | 0.0194 | 0.0822 ± 0.0024 (≈ 0.225 µM) | 11.6 | 0.1246 (≈ 0.34 µM) | 31.4 |  |  |  |  |  |  |  | 
2 | COP(=S)(OC)Oc1ccc(S(=O)(=O)N(C)C)cc1 [Famphur] | 347.8 | 0.0003 | 0.0013 ± 0.0001 (≈ 0.004 µM) | 339.6 | 0.0004 | 0.0015 ± 0.0001 (≈ 0.00461 µM) | 4.2 | 0.3464 (≈ 1.06 µM) | 80.3 | 58.2157 (≈ 179 µM) |  |  |  |  |  |  | 
3 | COP(=S)(OC)SCn1nnc2ccccc2c1=O [Azinphos-methyl] | 306.6 | 0.0004 | 0.0015 ± 0.0001 (≈ 0.00473 µM) | 290.8 | 0.0004 | 0.0017 ± 0.0001 (≈ 0.00536 µM) | < 0.3 | > 5 |  | > 100 |  |  |  |  |  |  | 
4 | COP(=O)(OC)OC=C(Cl)Cl [Dichlorvos] | 3.5 | 0.024 | 0.1321 ± 0.0061 (≈ 0.598 µM) | 3.5 | 0.0312 | 0.1454 ± 0.0038 (≈ 0.658 µM) | 0.8 | 1.8279 (≈ 8.27 µM) | 437.2 | > 100 |  |  |  |  |  |  | 
5 | CCOP(=S)(OCC)Oc1cnc2ccccc2n1 [Quinalphos] | 0.2 | 0.5123 | 2.8243 ± 0.0952 (≈ 9.47 µM) | 0.2 | 0.5318 | 3.2266 ± 0.0592 (≈ 10.8 µM) | 7.9 | 0.1842 (≈ 0.617 µM) | 32.5 |  |  |  |  |  |  |  | 
6 | CNC(=O)/C=C(\C)OP(=O)(OC)OC [Monocrotophos] | 2.6 | 0.0432 | 0.1791 ± 0.0086 (≈ 0.803 µM) | 2.5 | 0.0616 | 0.2014 ± 0.0043 (≈ 0.902 µM) | 0.5 | 2.9145 (≈ 13.1 µM) | 594.3 |  |  |  |  |  |  |  | 
7 | CNC(=O)CSP(=S)(OC)OC [Dimethoate] | 2.7 |  |  | 2.7 |  |  |  |  |  |  | 0.1703 ± 0.0073 (≈ 0.743 µM) | 0.0184 | 0.1893 ± 0.0081 (≈ 0.826 µM) | 0.0284 | < 0.3 | > 5 | 
8 | COP(=S)(OC)SCN1C(=O)c2ccccc2C1=O [Phosmet] | 323.6 | 0.0003 | 0.0014 ± 0.0001 (≈ 0.00441 µM) | 332.9 | 0.0003 | 0.0015 ± 0.0001 (≈ 0.00473 µM) | < 0.3 | > 5 |  |  |  |  |  |  |  |  | 0.1597 (≈ 0.503 µM)
9 | COP(=S)(OC)Oc1cc(Cl)c(Cl)cc1Cl [Fenchlorphos] | 10.5 | 0.0074 | 0.0443 ± 0.0022 (≈ 0.138 µM) | 10.1 | 0.0093 | 0.0501 ± 0.0021 (≈ 0.156 µM) | 26.4 | 0.055 (≈ 0.171 µM) | 13.3 |  |  |  |  |  |  |  | 
10 | CCOP(=S)(Oc1ccc([N+](=O)[O-])cc1)c1ccccc1 (centres unmarked) [EPN] |  |  |  |  |  |  |  |  |  | 0.0183 (≈ 0.0566 µM) |  |  |  |  |  |  | 
